Experimental findings from PMC5384001 (Scientific Reports, 2017) are described below.

The target of assay [1] is T1, GluD2-Lc-(H)GluN1 (Rattus norvegicus, UniProt Q63226, A654T/A766F/D542Y/D767R/N763E/R768S/S544G/T764L/V761T/V765F/Y543Q).
T1 construct: the function of full-length receptors as well, we introduced them into the GluD2 lurcher mutant (GluD2-Lc); expressed in transfected cells; host or cells: Xenopus laevis oocytes injected with cRNA
T1 sequence (Q63226 24-1007 D542Y/Y543Q/S544G/A654T/V761T/N763E/T764L/V765F/A766F/D767R/R768S): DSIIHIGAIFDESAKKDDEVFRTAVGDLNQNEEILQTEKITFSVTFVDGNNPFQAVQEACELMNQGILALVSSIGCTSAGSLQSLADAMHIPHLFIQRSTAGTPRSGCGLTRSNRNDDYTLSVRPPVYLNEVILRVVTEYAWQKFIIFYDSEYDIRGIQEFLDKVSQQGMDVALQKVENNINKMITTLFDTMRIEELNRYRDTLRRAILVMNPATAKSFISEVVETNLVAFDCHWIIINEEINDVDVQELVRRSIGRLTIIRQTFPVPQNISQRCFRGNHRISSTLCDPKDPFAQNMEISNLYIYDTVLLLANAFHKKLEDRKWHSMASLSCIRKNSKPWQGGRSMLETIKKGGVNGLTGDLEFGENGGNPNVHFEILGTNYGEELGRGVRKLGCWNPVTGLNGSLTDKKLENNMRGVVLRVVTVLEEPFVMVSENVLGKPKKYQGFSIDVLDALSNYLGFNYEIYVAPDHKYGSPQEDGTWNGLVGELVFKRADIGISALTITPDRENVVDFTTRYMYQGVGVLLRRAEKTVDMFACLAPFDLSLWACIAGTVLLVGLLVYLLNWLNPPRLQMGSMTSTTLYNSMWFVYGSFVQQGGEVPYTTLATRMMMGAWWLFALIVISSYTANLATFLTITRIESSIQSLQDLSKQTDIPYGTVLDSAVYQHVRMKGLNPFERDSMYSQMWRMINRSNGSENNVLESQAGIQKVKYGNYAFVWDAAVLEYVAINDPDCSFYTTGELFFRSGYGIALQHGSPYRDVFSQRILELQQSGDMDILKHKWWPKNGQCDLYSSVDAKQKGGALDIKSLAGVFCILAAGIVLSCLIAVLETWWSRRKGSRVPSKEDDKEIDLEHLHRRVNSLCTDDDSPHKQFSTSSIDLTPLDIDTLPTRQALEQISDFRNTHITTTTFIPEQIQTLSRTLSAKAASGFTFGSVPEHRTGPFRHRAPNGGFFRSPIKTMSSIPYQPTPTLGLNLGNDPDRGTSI
The experiment in a line: Two-electrode voltage clamp in Xenopus oocytes, inhibition of spontaneous currents. Format: cell-based. The text has this:
(§1) All cDNAs for expression in Xenopus oocytes were cloned into the vector pSGEM[30]. Point mutants of GluD2-Lc were constructed by overlap extension PCR with mutagenic oligonucleotide primers. The GluD2-Lc-(H)GluN1 chimera was constructed by transferring the S1- and S2-encoding sequences from GluD2-LBD-(H)GluN1 to GluD2-Lc via overlap extension PCR using tail primers. The S1 and S2 sequences were transferred separately, yielding GluD2-Lc-(HS1)GluN1 and GluD2-Lc-(HS2)GluN1 constructs. GluD2-Lc-(H)GluN1 was then produced from these by another overlap extension PCR. Complementary RNA (cRNA) for injection into oocytes was synthesised from 1 μg of linearised template DNA with the mMESSAGE mMACHINE in vitro transcription kit (Ambion, Austin, TX, USA).
(§2) Oocytes were obtained by surgically removing parts of the ovaries from Xenopus laevis (Nasco, Fort Atkinson, WI, USA) anaesthetised with 1.5 g/L 3-aminobenzoic acid ethylester (Sigma, Taufkirchen, Germany). […] Oocytes were injected with 11 ng cRNA (10 ng of each cRNA for co-expression of GluN1 and GluN2A) using a nanoliter injector (WPI, Sarasota, FL, USA). Four days after cRNA injection, current responses were recorded under voltage clamp at –70 mV with a Turbo Tec-10CD amplifier (npi electronic, Tamm, Germany) controlled by Patchmaster software (HEKA, Lambrecht, Germany). Currents were filtered with a 20 Hz low-pass filter and then digitised with a sampling rate of 50 Hz. Recording electrodes were pulled from borosilicate glass (Hilgenberg, Malsfeld, Germany) with an L/M-3P-A vertical pipette puller (List-Medical), filled with 3 M KCl, and had resistances of 0.5–5 MΩ (voltage electrode) or 0.5–1.5 MΩ (current electrode). Recordings were performed in a 50 μL chamber under constant superfusion with extracellular solution at a flow rate of 3–5 mL/min. […] Finally, Ba-NFR and then NMDGR were applied again to check for reversibility.

Assay [2] has as its target T2, GluD2-Lc (Rattus norvegicus, UniProt Q63226, A654T).
T2 construct: the function of full-length receptors as well, we introduced them into the GluD2 lurcher mutant (GluD2-Lc); expressed in transfected cells; host or cells: Xenopus laevis oocytes injected with cRNA
T2 sequence (Q63226 24-1007 A654T): T1 sequence (Q63226 24-1007 D542Y/Y543Q/S544G/A654T/V761T/N763E/T764L/V765F/A766F/D767R/R768S) with Y519D, Q520Y, G521S, T738V, E740N, L741T, F742V, F743A, R744D, S745R
Described as above. Format: cell-based.
From the text: as §1, §2

Where [3] appears, read: fraction of spontaneous current inhibited by saturating D-serine.

Numbering of substitutions follows the chain as printed. “And” between values parts separate entries of the source, which are not always exact repeats. Equal values may be shown once.

For the compound `N[C@H](CO)C(=O)O` [D-serine], the “D-serine concentration of maximum inhibition of spontaneous currents” value in assay [1] (bell-shaped concentration–response curve) is 10 µM. Further, the “D-serine efficacy Mean ± SEM” value in assay [1] (setting [3]) is 13% and 12.9 ± 0.8%; in assay [2] (setting [3]), 46% and 46.2 ± 1.9%. In addition, the figures for the “maximal, absolute, D-serine-induced steady-state inhibition of spontaneous currents” value in assay [1] (n = 30) and in assay [2] (n = 20) were 53 ± 8 nA and 222 ± 36 nA, respectively.
